Patent US4180578A, “2,4-Diamino-5-(4'-methylthio)benzylpyrimidenes, compounds, compositions and method of use” (Ludwig Heumann, & Co. GmbH, priority 1977, dated 1979)
Converted amounts (≈) assume the structure as drawn.

Assays:
E. Coli = assay: MIC, serial dilution test, DST-Agar; assay type: cell-based; conditions: Escherichia coli, n = 15, DST-Agar, read-out: Geometrical mean value of MIC
Source text: (§1) MIC values in μg/ml (serial dilution test, DST-Agar)
(§2) Geometrical mean value of MIC in μg/ml

Enterococcus = assay: MIC, serial dilution test, DST-Agar; assay type: cell-based; conditions: n = 2, DST-Agar, read-out: Geometrical mean value of MIC
Source text: as §1, §2

Klebsiellae = assay: MIC, serial dilution test, DST-Agar; assay type: cell-based; conditions: n = 3, DST-Agar, read-out: Geometrical mean value of MIC
Source text: as §1, §2

Proteus = assay: MIC, serial dilution test, DST-Agar; assay type: cell-based; conditions: n = 3, DST-Agar, read-out: Geometrical mean value of MIC
Source text: as §1, §2

in vivo = conditions: po, mouse, intragastral, safety limits p = 0.05 printed for TMP: lower 2105.5, upper 3629.8
Source text: 2,4-diamino-5-(3',5'-dimethoxy-4'-S-methyl)-
benzylpyrimidine (mouse, intragastral administration) (determined
according to J.T. Litchfield and F. Wilcoxon in "J. Pharmacol.

Serum level, rat = assay type: in vivo; conditions: po, 50 mg/kg i.g.
Description: |Serum level, rat (50 mg/kg i.g.)

SMILES: COc1cc(Cc2cnc(N)nc2N)cc(OC)c1OC [TMP, 2,4-diamino-5-(3'4',5'-trimethoxybenzyl)-pyrimidine]
- MIC (E. Coli): 0.108 µg/mL (≈ 0.372 µM)
- MIC (Enterococcus): 0.078 µg/mL (≈ 0.269 µM)
- MIC (Klebsiellae): 0.496 µg/mL (≈ 1.71 µM)
- MIC (Proteus): 0.625 µg/mL (≈ 2.15 µM)
- LD50 (in vivo): 2760 mg/kg
- concentration at 0.5 h (Serum level, rat): 4500 ng/mL
- concentration at 1 h (Serum level, rat): 3300 ng/mL

SMILES: COc1cc(Cc2cnc(N)nc2N)cc(OC)c1SC [2,4-diamino-5-(3',5-dimethoxy-4'-methylthio)-benzylpyrimidine]
- MIC (E. Coli): 0.142 µg/mL (≈ 0.463 µM)
- MIC (Enterococcus): 0.156 µg/mL (≈ 0.509 µM)
- MIC (Klebsiellae): 0.248 µg/mL (≈ 0.809 µM)
- MIC (Proteus): 0.992 µg/mL (≈ 3.24 µM)
- LD50 (in vivo): > 5000 mg/kg
- concentration at 0.5 h (Serum level, rat): 5000 ng/mL
- concentration at 1 h (Serum level, rat): 2700 ng/mL
